In one experiment the target is T1, human NK1 receptors (Homo sapiens, UniProt P25103).
T1 construct: expressed in transfected cells; host or cells: CHO cells (membrane preparation)
Put plainly: Binding of the test substances to NK1 receptors in vitro ([3H]-Substance P displacement, CHO cell membranes). The settings on record: [3H]-Substance P as ligand; membranes of CHO cells expressing the human NK1 receptor; Ki calculated from IC50; read-out: pKi (NK1) (converted). How it is done:
In The Netherlands, the affinity of the test substances to human NK1 receptors was measured in vitro.
The receptor binding studies were performed with [^3H]-Substance P as ligand. For the binding test, different samples of a membrane preparation of CHO cells (= egg cells of the Chinese hamster, Chinese hamster oocytes), which express the human NK1 receptor ("Accession Number" of the associated nucleic acid sequence = M74290; "Accession Number" of the associated protein sequence = P25103; cf. Takeda, Y.; Chou, K. B., Takeda, J.; Sachais, B.S. and Krause, J. E; Biochemical and Biophysical Research Communications, 179(3) (1991) 1232 - 1240), were incubated with a solution of the marked ligand, with the incubation mixtures containing no test substance or additions of different concentrations of test substance. Then, separation of bound and free ligands was performed in each of the samples with the aid of glass-fibre filtration. The fraction remaining in the filter was washed several times with buffer solution and then the radioactivity of the fraction remaining in the filter was measured using a beta scintillation counter.
For the compounds of Examples 1 to 14, that concentration which effects half maximum displacement of the bound ligand was determined as IC50 of the respective test substance. From this, the corresponding inhibition constant (Ki value) of the test substance was calculated, and was stated as the negative common logarithm of the Ki value (= pKi value). The pKi value is a measurement of the affinity of the test substances to human NK1 receptors.

A further experiment deals with T2, human NK2 receptors (Homo sapiens, UniProt P21452).
T2 construct: expressed in transfected cells; host or cells: CHO cells (membrane preparation)
T2 sequence (P21452 1-398): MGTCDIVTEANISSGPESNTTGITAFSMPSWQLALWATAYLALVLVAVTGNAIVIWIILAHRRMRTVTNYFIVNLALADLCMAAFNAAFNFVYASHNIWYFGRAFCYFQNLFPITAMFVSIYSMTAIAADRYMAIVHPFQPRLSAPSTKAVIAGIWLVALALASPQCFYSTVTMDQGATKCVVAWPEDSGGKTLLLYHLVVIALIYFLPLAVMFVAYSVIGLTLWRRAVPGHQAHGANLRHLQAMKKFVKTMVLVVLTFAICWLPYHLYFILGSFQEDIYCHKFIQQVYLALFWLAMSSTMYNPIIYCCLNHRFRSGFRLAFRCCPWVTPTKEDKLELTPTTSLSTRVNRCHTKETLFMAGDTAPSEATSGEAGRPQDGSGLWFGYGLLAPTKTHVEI
Description: Binding of the test substances to NK2 receptors in vitro ([3H]-SR 48968 displacement, CHO cell membranes). The settings on record: [3H]-SR 48968 as ligand; membranes of CHO cells expressing the human NK2 receptor; 90 min incubation; Ki calculated from IC50; read-out: pKi (NK2) (converted). The protocol:
The affinity of the test substances to human NK2 receptors was measured in vitro. The ability of the test substances to displace the selective NK2 receptor antagonist SR 48968 (= saredutant) used as reference ligand from its corresponding bond was determined.
The receptor binding studies were carried out with radioactively marked [^3H]-SR 48968 (from Amersham) as ligand. For the binding test, different samples of a membrane preparation of CHO cells (= egg cells of the Chinese hamster, Chinese hamster oocytes), which express the human NK2 receptor (for preparation, see N.P. Gerard et al., Journal of Biological Chemistry 265/33 (1990) 20455-20462), were incubated for 90 minutes (= min.) with a solution of the marked ligand, with the incubation mixtures containing no test substance or additions of different concentrations of test substance. Then in each case the membrane-bound ligands in the samples were separated from free ligands by filtration. The fraction remaining in the filter was washed several times with buffer solution, before its radioactivity was measured using a liquid scintillation counter. That concentration which effects half-maximum displacement of the bound reference ligand was determined as IC50 of the respective test substance. The inhibition constant (Ki value) of the test substance was calculated from the respective IC50 value, and was stated as the negative logarithmised value thereof (pKi).
If several measurements were performed, the average thereof was listed each time. The pKi value is a measurement of the affinity of the test substances to human NK2 receptors.

Experiment [1] deals with T3, cloned human NK2 receptors (Homo sapiens, UniProt P21452).
T3 construct: expressed in transfected cells
T3 sequence (P21452 1-398): T2 sequence (P21452 1-398)
Description: Ca2+ measurements using FLIPR for NK2 activity in CHO cells. Type of experiment: cell-based. Particulars: NKA 10^-7 M as agonist; compound applied 7 min before; pA2 calculated from IC50. From the text:
(§1) The NK receptor is coupled to Gq.
(§2) All steps were done under sterile conditions. […] The results are summarized in table 5: Table 5: pA2 data for NK1 and NK2: […]

Experiment [2] has as its target T4, cloned human NK1 receptors (Homo sapiens, UniProt P25103).
T4 construct: expressed in transfected cells
Put plainly: Ca2+ measurements using FLIPR for NK1 activity in CHO cells. Format: cell-based. The settings on record: substance P 10^-8 M as agonist; compound applied 7 min before; pA2 calculated from IC50.
Description: as §1, §2

T4 sequence (P25103 whole entry): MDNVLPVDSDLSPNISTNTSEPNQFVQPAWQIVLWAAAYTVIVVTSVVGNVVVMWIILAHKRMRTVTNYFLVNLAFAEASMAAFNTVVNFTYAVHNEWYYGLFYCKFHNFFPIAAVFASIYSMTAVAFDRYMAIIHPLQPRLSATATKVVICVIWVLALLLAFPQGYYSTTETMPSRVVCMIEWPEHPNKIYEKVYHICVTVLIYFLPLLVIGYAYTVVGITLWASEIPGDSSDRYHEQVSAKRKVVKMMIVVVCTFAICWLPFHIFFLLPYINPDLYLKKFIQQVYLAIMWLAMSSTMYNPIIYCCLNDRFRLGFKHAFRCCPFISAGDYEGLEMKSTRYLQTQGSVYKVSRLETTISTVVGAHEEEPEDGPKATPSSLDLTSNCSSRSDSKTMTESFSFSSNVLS
T1 sequence (P25103 whole entry): as above

Take `CN(C[C@@H](CCN1CCN([C@@H](c2ccc(Cl)s2)[C@H](O)CO)CC1)c1ccc(Cl)c(Cl)c1)C(=O)c1cc(C#N)cc2ccccc12` [Compound 18, N-[(2S)-4-{4-[(1R,2S)-1-(5-chloro-2-thienyl)-2,3-dihydroxypropyl]piperazin-1-yl}-2-(3,4-dichlorophenyl)butyl]-3-cyano-N-methyl-1-naphthamide]: the Ki at human NK1 receptors was 3.16 nM; on human NK2 receptors it was 158 nM. For the same compound, the Kb in experiment [1] was 2.51 nM; in experiment [2], 6.31 nM.
For `CN(C[C@@H](CCN1CCN(C(CO)c2ccco2)CC1)c1ccc(Cl)c(Cl)c1)C(=O)c1cc(C#N)cc2ccccc12` (stereo partly drawn) [Compound 28, 3-cyano-N-[(2S)-2-(3,4-dichlorophenyl)-4-{4-[1-(2-furyl)-2-hydroxyethyl]piperazin-1-yl}butyl]-N-methyl-1-naphthamide], the Ki was 12.6 nM on human NK1 receptors and 50.1 nM on human NK2 receptors. In addition, the Kb in experiment [1] is 25.1 nM; in experiment [2] it was 2 nM.
As for `CN(CC(CCN1CCN(C(Cc2ccccc2)C(O)CO)CC1)c1ccc(Cl)c(Cl)c1)C(=O)c1cc(C#N)cc2ccccc12` (stereo not drawn) [Compound 24], the “pA2 (NK2)” value in experiment [1] is 7,8. In addition, the “pA2 (NK1)” value in experiment [2] is reported as 8,1.
On the same counts, the results for `CC(=O)OCC(O)C(Cc1ccccc1)N1CCN(CCC(CN(C)C(=O)c2cc(C#N)cc3ccccc23)c2ccc(Cl)c(Cl)c2)CC1` (stereo not drawn) [Compound 26] are 7,4 and 8,0.
For the compound `CN(C[C@@H](CCN1CCN([C@@H](c2cc3ccccc3s2)[C@H](O)CO)CC1)c1ccc(Cl)c(Cl)c1)C(=O)c1cc(C#N)cc2ccccc12` [Compound 22, N-[(2S)-4-{4-[(1R,2S)-1-(1-benzothien-2-yl)-2,3-dihydroxypropyl]piperazin-1-yl}-2-(3,4-dichlorophenyl)butyl]-3-cyano-N-methyl-1-naphthamide], the Ki on human NK1 receptors was 3.98 nM; on human NK2 receptors it was 1000 nM. Moreover, the figures for the Kb in experiment [1] and in experiment [2] were 3.16 nM and 7.94 nM, respectively.
Regarding `CC(=O)OC[C@@H](OC(C)=O)[C@H](c1ccco1)N1CCN(CC[C@H](CN(C)C(=O)c2cc(C#N)cc3ccccc23)c2ccc(Cl)c(Cl)c2)CC1` [Compound 27, (2S,3R)-2-(acetyloxy)-3-{4-[(3S)-4-[3-cyano-1-naphthoyl)(methyl)amino]-3-(3,4-dichlorophenyl)butyl]piperazin-1-yl}-3-(2-furyl)propyl acetate], the “pA2 (NK2)” value in experiment [1] is given as 8,1. Moreover, the “pA2 (NK1)” value in experiment [2] is reported as 9,2.
In the case of `CN(C[C@@H](CCN1CCN([C@@H](c2cc3ccccc3o2)[C@H](O)CO)CC1)c1ccc(Cl)c(Cl)c1)C(=O)c1cc(C#N)cc2ccccc12` [Compound 17, N-[(2S)-4-{4-[(1R,2S)-1-(1-benzofuran-2-yl)-2,3-dihydroxypropyl]piperazin-1-yl}-2-(3,4-dichlorophenyl)butyl]-3-cyano-N-methyl-1-naphthamide], the Ki at human NK1 receptors is 31.6 nM; on human NK2 receptors, 3160 nM. For the same compound, the Kb in experiment [1] and in experiment [2] was 20 nM throughout.
For the compound `CN(C[C@@H](CCN1CCN([C@@H](c2ccsc2)[C@H](O)[C@H](O)[C@H](O)CO)CC1)c1ccc(Cl)c(Cl)c1)C(=O)c1cc(C#N)cc2ccccc12` [Compound 4, 3-cyano-N-[(2S)-2-(3,4-dichlorophenyl)-4-{4-[(1S,2S,3S,4R)-2,3,4,5-tetrahydroxy-1-(3-thienyl)pentyl]piperazin-1-yl}butyl]-N-methyl-1-naphthamide], the Ki was 2.51 nM on human NK1 receptors and 126 nM on human NK2 receptors.
Turning to `COc1ccc([C@@H]([C@H](O)CO)N2CCN(CC[C@H](CN(C)C(=O)c3cc(C#N)cc4ccccc34)c3ccc(Cl)c(Cl)c3)CC2)cc1` [Compound 16, 3-cyano-N-[(2)-2-(3,4-dichlorophenyl)-4-{4-[(1S,2S)-2,3-dihydroxy-1-(4-methoxyohenyl)propyl]piperazin-1-yl}butyl]-N-methyl-1-naphthamide], the “pA2 (NK2)” value in experiment [1] is 9,1. Moreover, the “pA2 (NK1)” value in experiment [2] was 9,3.
With `CN(C[C@@H](CCN1CCN([C@@H](c2ccoc2)[C@H](O)CO)CC1)c1ccc(Cl)c(Cl)c1)C(=O)c1cc(C#N)cc2ccccc12` [Compound 12, 3-cyano-N-[(2S)-2-(3,4-dichlorophenyl)-4-{4-[(1S,2S)-1-(3-furyl)-2,3-dihydroxypropyl]piperazin-1-yl}butyl]-N-methyl-1-naphthamide], the Ki at human NK1 receptors is 10 nM; at human NK2 receptors it was 100 nM.
As to `CN(C[C@@H](CCN1CCN(C(c2ccco2)C(O)CO)CC1)c1ccc(Cl)c(Cl)c1)C(=O)c1cc(C#N)cc2ccccc12` (stereo partly drawn) [Compound 14, 3-cyano-N-[(2S)-2-(3,4-dichlorophenyl)-4-{4-[1-(2-furyl)-2,3-dihydroxypropyl]piperazin-1-yl}butyl]-N-methyl-1-naphthamide], the results for the Ki at human NK1 receptors and at human NK2 receptors were 5.01 nM and 12.6 nM, respectively. The Kb is 3.16 nM in experiment [1] and 0.398 nM in experiment [2].
On the same counts, the results for `CN(C[C@@H](CCN1CCN(C(CO)c2ccco2)CC1)c1ccc(Cl)c(Cl)c1)C(=O)c1cc(C#N)cc2ccccc12` (stereo partly drawn) [Compound 25, 3-cyano-N-[(2S)-2-(3,4-dichlorophenyl)-4-{4-[1-(2-furyl)-2-hydroxyethyl]piperazin-1-yl}butyl]-N-methyl-1-naphthamide] are 7.94 nM, 39.8 nM, 1 nM and 3.16 nM.
On the same counts, the results for `CN(C[C@@H](CCN1CCN([C@@H](c2ccc3c(c2)OCO3)[C@H](O)CO)CC1)c1ccc(Cl)c(Cl)c1)C(=O)c1cc(C#N)cc2ccccc12` [Compound 21, N-[(2S)-4-{4-[(1S,2S)-1-(1,3-benzodioxol-5-yl)-2,3-dihydroxypropyl]piperazin-1-yl}-2-(3,4-dichlorophenyl)butyl]-3-cyano-N-methyl-1-naphthamide] are 2 nM, 398 nM, 0.316 nM and 0.794 nM.
As for `CN(C[C@@H](CCN1CCN([C@@H](c2ccco2)[C@H](O)[C@H](O)[C@H](O)CO)CC1)c1ccc(Cl)c(Cl)c1)C(=O)c1cc(C#N)cc2ccccc12` [Compound 3, 3-cyano-N-[(2S)-2-(3,4-dichlorophenyl)-4-{4-[(1R,2S,3S,4R)-1-(2-furyl)-2,3,4,5-tetrahydroxypentyl]piperazin-1-yl}butyl]-N-methyl-1-naphthamide], the figures for the Ki at human NK1 receptors and on human NK2 receptors were 1.58 nM and 63.1 nM, respectively.

The record behind these values is EP1954678B1, “NOVEL NK1 AND NK2 ANTAGONISTS” (Abbott Products GmbH, priority 2005, dated 2007).
